≈ marks a conversion by molar mass, not a printed value.
Experiments:
[1] = target: Proto-oncogene tyrosine-protein kinase Src (Homo sapiens) (UniProt P12931); assay: Inhibition of protein tyrosine kinase mediated [gamma-32P]-ATP incorporation at 10 ug/mL in src-transformed NIH3T3; range = 50-80%
[2] = target: T1, Eukaryotic elongation factor 2 kinase (Homo sapiens) (UniProt O00418); assay: Inhibition of eukaryotic elongation factor-2 kinase mediated [gamma-32P]-ATP incorporation at 0.1 ug/mL
T1 sequence (whole entry): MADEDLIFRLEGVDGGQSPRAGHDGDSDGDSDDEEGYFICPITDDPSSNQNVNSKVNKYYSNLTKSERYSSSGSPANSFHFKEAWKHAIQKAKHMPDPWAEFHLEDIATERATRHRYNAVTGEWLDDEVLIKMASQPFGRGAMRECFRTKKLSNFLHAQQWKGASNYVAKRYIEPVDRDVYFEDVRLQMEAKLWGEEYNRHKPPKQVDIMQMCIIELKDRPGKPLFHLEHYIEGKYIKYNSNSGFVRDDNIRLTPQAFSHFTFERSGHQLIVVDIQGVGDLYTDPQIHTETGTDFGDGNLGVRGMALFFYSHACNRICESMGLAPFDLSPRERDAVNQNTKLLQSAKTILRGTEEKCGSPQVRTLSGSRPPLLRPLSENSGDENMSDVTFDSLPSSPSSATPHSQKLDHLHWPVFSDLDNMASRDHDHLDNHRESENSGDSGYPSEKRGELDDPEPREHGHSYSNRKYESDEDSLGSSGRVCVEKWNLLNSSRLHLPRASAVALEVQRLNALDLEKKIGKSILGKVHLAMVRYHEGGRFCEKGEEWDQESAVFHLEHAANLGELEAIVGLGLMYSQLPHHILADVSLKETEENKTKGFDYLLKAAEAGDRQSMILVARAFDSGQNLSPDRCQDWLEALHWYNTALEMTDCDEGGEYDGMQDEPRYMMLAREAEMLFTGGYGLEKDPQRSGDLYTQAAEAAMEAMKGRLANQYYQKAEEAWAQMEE

[3] = target: T2, cAMP-dependent protein kinase (PKA) (Homo sapiens) (UniProt P22694+P17612+P22612); assay: Inhibition of Protein kinase A mediated [gamma-32P]-ATP incorporation at 1 ug/mL; format: protein assay
[4] = target: T2, cAMP-dependent protein kinase (PKA) (Homo sapiens); assay: Inhibition of Protein kinase A mediated [gamma-32P]-ATP incorporation at 10 ug/mL; format: protein assay
[5] = Cytotoxicity against KB/VJ300 cells; format: functional, cell-based; details: Homo sapiens
HeLa = assay: Cytotoxicity against HeLa cells; format: functional, cell-based; details: Homo sapiens
[6] = target: Vascular endothelial growth factor receptor 1 (Homo sapiens) (UniProt P17948); assay: Inhibition of Vascular endothelial growth factor receptor 1 mediated [gamma-32P]-ATP incorporation at 10 ug/mL
[7] = target: T3, Protein kinase C (PKC) (Homo sapiens) (UniProt O94806+P41743+P17252+P05129+Q05655+P05771+Q05513+Q02156+P24723+Q15139+Q04759); assay: Inhibition of Protein kinase C mediated […]-ATP incorporation at 10 ug/mL; Range is 50 to 80%; format: protein assay
[8] = target: T1, Eukaryotic elongation factor 2 kinase (Homo sapiens); assay: Inhibition of eukaryotic elongation factor-2 kinase mediated [gamma-32P]-ATP incorporation at 1 ug/mL
[9] = target: Vascular endothelial growth factor receptor 1 (Homo sapiens) (UniProt P17948); assay: Inhibition of Vascular endothelial growth factor receptor 1 mediated [gamma-32P]-ATP incorporation at 0.1 ug/mL
[10] = target: T3, Protein kinase C (PKC) (Homo sapiens); assay: Inhibition of Protein kinase C mediated […]-ATP incorporation at 1 ug/mL; format: protein assay
Jurkat = assay: Cytotoxicity against Jurkat cells; format: functional, cell-based; details: Homo sapiens
[11] = target: Proto-oncogene tyrosine-protein kinase Src (Homo sapiens) (UniProt P12931); assay: Inhibition of protein tyrosine kinase mediated [gamma-32P]-ATP incorporation at 1 ug/mL in src-transformed NIH3T3
[12] = target: T3, Protein kinase C (PKC) (Homo sapiens); assay: Inhibition of Protein kinase C mediated […]-ATP incorporation at 0.1 ug/mL; format: protein assay
[13] = target: T2, cAMP-dependent protein kinase (PKA) (Homo sapiens); assay: Inhibition of Protein kinase A mediated [gamma-32P]-ATP incorporation at 0.1 ug/mL; format: protein assay
[14] = target: T1, Eukaryotic elongation factor 2 kinase (Homo sapiens); assay: Inhibition of eukaryotic elongation factor-2 kinase mediated [gamma-32P]-ATP incorporation at 10 ug/mL
[15] = target: Proto-oncogene tyrosine-protein kinase Src (Homo sapiens) (UniProt P12931); assay: Inhibition of protein tyrosine kinase mediated [gamma-32P]-ATP incorporation at 0.1 ug/mL in src-transformed NIH3T3
[16] = target: Vascular endothelial growth factor receptor 1 (Homo sapiens) (UniProt P17948); assay: Inhibition of Vascular endothelial growth factor receptor 1 mediated [gamma-32P]-ATP incorporation at 1 ug/mL
[17] = target: Proto-oncogene tyrosine-protein kinase Src (Homo sapiens) (UniProt P12931); assay: Inhibition of protein tyrosine kinase mediated [gamma-32P]-ATP incorporation at 10 ug/mL in src-transformed NIH3T3
[18] = target: T3, Protein kinase C (PKC) (Homo sapiens); assay: Inhibition of Protein kinase C mediated […]-ATP incorporation at 10 ug/mL; format: protein assay
[19] = target: T1, Eukaryotic elongation factor 2 kinase (Homo sapiens); assay: Inhibition of eukaryotic elongation factor-2 kinase mediated [gamma-32P]-ATP incorporation at 10 ug/mL; Range is 50-80

Sequence of Proto-oncogene tyrosine-protein kinase Src (Homo sapiens) (P12931 2-536 limits assumed): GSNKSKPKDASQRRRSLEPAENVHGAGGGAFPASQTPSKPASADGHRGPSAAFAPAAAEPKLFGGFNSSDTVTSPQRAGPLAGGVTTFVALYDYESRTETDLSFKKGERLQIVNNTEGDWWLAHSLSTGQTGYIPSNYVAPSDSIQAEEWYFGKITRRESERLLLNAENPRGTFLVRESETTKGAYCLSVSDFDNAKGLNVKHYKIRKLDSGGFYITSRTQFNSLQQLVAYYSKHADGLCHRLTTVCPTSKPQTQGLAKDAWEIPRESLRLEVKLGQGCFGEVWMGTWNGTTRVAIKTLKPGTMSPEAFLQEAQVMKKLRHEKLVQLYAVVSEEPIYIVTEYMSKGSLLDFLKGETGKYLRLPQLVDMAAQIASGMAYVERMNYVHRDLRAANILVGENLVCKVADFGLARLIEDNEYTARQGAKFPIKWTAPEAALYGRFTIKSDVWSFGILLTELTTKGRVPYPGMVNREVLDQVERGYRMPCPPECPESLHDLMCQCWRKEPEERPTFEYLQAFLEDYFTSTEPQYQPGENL
Sequence of Vascular endothelial growth factor receptor 1 (Homo sapiens) (P17948 whole entry): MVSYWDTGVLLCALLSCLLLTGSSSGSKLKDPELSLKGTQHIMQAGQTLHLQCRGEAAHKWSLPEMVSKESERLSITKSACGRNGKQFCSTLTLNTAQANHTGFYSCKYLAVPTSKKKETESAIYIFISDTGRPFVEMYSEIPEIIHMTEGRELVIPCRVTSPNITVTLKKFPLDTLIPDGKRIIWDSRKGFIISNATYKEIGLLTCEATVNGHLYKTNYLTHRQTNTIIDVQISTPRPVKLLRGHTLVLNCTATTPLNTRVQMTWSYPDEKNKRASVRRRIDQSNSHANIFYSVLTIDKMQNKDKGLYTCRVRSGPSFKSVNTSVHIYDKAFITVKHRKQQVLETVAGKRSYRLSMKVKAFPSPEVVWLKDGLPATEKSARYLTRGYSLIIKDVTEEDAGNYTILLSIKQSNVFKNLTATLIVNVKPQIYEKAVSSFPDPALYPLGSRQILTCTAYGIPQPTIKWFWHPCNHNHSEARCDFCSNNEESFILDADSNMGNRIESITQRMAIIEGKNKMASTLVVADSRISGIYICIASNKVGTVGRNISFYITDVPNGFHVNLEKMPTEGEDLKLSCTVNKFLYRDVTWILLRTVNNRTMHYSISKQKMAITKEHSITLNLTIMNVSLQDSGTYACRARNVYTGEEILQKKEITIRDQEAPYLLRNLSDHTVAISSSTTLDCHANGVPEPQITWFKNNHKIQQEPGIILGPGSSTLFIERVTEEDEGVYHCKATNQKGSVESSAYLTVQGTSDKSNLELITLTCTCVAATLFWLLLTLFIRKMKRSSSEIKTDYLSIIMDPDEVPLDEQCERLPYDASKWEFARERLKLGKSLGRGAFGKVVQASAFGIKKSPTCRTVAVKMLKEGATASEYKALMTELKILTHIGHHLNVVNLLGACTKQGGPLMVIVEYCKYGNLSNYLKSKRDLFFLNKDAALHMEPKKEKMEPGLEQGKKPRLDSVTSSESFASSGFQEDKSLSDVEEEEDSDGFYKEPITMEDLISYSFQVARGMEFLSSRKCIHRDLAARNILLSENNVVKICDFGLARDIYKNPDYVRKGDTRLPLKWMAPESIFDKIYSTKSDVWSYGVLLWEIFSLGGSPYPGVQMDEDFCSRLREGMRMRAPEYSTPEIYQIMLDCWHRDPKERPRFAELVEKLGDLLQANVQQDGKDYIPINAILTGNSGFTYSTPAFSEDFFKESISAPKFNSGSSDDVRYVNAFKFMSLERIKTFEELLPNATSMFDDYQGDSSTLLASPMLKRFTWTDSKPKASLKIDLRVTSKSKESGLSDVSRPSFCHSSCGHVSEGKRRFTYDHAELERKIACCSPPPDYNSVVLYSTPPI

Compound	inhibition [2]	inhibition [3]	inhibition [4]	inhibition [6]	inhibition [8]	inhibition [9]	inhibition [10]	inhibition [11]	inhibition [12]	inhibition [13]	inhibition [14]	inhibition [15]	inhibition [16]	inhibition [17]	inhibition [18]	IC50 [5]	IC50 (HeLa)	IC50 (Jurkat)	also measured
O=C1NC(=O)C(c2c[nH]c3ccccc23)=C1c1c[nH]c2ccccc12 [RO-316233]	< 50%	< 50%	80%	< 50%	< 50%	< 50%	< 50%	< 50%	–	< 50%	< 50%	< 50%	< 50%	80%	–	> 25 µg/mL	–	6.3 µg/mL (≈ 19.2 µM)	–
COC(=O)c1[nH]c(C(=O)OC)c(-c2c[nH]c3ccccc23)c1-c1c[nH]c2ccccc12 [LYCOGARUBIN C]	< 50%	< 50%	< 50%	< 50%	< 50%	–	< 50%	< 50%	< 50%	< 50%	< 50%	< 50%	< 50%	< 50%	< 50%	> 25 µg/mL	–	15.3 µg/mL (≈ 37 µM)	–
COC(=O)c1[nH]c(C(=O)OC)c(-c2c[nH]c3ccc(O)cc23)c1-c1c[nH]c2ccccc12 [LYCOGARUBIN B]	< 50%	< 50%	< 50%	< 50%	< 50%	< 50%	< 50%	< 50%	< 50%	–	< 50%	< 50%	50%	< 50%	< 50%	> 25 µg/mL	–	18 µg/mL (≈ 41.9 µM)	–

More lines, main results first:

inhibition [2]	inhibition [3]	inhibition [4]	inhibition [6]	inhibition [8]	inhibition [9]	inhibition [10]	inhibition [11]	inhibition [12]	inhibition [13]	inhibition [14]	inhibition [15]	inhibition [16]	inhibition [17]	inhibition [18]	Compound	IC50 [5]	IC50 (HeLa)	IC50 (Jurkat)	also measured
< 50%	< 50%	< 50%	< 50%	< 50%	< 50%	< 50%	< 50%	< 50%	< 50%	< 50%	< 50%	< 50%	–	–	O=C1NC(=O)c2c1c1c3ccccc3[nH]c1c1[nH]c3cc(O)c(O)cc3c21	25 µg/mL (≈ 70 µM)	2.1 µg/mL (≈ 5.88 µM)	0.84 µg/mL (≈ 2.35 µM)	inhibition [1]: 80%; inhibition [7]: 80%
< 50%	< 50%	80%	80%	< 50%	< 50%	< 50%	80%	< 50%	< 50%	–	< 50%	< 50%	> 80%	80%	O=C1NCc2c1c1c3ccc(O)cc3[nH]c1c1[nH]c3ccccc3c21	7.6 µg/mL (≈ 23.2 µM)	5.4 µg/mL (≈ 16.5 µM)	1.34 µg/mL (≈ 4.09 µM)	inhibition [19]: 80%

From ChEMBL document CHEMBL1145273, “New cytotoxic bisindole alkaloids with protein tyrosine kinase inhibitory activity from a myxomycete Lycogala epidendrum” (Bioorg Med Chem Lett, 2005)
